Results reported in PMC8067507, “Aryl Urea Based Scaffolds for Multitarget Drug Discovery in Anticancer Immunotherapies” (Pharmaceuticals, 2021).

What was measured:
[1] = tested on: HEK-293 (human embryonic kidney cells); assay: Cell proliferation assay (MTT); format: cell-based; settings: HEK293, 48 h, 2 days incubation, average ± SD of three experiments
Text: (§1) The ability of Ureas 13–33 to inhibit cell proliferation was established by means of their IC50 values towards the human tumor cell lines HT-29 (colon adenocarcinoma), MCF-7 (breast adenocarcinoma), HeLa (epithelioid cervix carcinoma) and A549 (pulmonary adenocarcinoma), as well as towards the endothelial cell line HMEC-1 (human microvascular endothelial cells) and the non-tumor cell line HEK-293 (human embryonic kidney cells).
(§2) HT-29, MCF-7, HeLa, A549 and HEK-293 cell lines were maintained in Dulbecco’s modified Eagle’s medium (DMEM) containing glucose (1 g/L), glutamine (2 mM), penicillin (50 μg/mL), streptomycin (50 μg/mL), and amphotericin B (1.25 μg/mL), supplemented with 10% FBS. HMEC-1 cell line was maintained in Dulbecco’s modified Eagle’s medium (DMEM)/low glucose containing glutamine (2 mM), penicillin (50 μg/mL), streptomycin (50 μg/mL), and amphotericin B (1.25 μg/mL), supplemented with 10% FBS. For the development of tube formation assays in Matrigel, HMEC-1 cells were cultured in EGM-2MV Medium supplemented with EGM-2MV SingleQuots.
(§3) In 96-well plates, 3 × 10^3 (HeLa, A549, HMEC-1, HEK-293) or 5 × 10^3 (HT-29, MCF-7) cells per well were incubated with serial dilutions of the tested compounds in a total volume of 100 μL of their respective growth media. The 3-(4,5-dimethylthiazol-2-yl)-2,5-diphenyltetrazolium bromide (MTT; Sigma Chemical Co.) dye reduction assay in 96-well microplates was used. After 2 days of incubation (37 °C, 5% CO2 in a humid atmosphere), 10 μL of MTT (5 mg/mL in phosphate-buffered saline, PBS) was added to each well, and the plate was incubated for a further 3 h (37 °C). After that, the supernatant was discarded and replaced by 100 µL of DMSO to dissolve formazan crystals. The absorbance was then read at 540 nm by spectrophotometry. For all concentrations of compound, cell viability was expressed as the percentage of the ratio between the mean absorbance of treated cells and the mean absorbance of untreated cells. Three independent experiments were performed, and the IC50 values (i.e., concentration half inhibiting cell proliferation) were graphically determined using GraphPad Prism 4 software.

[2] = tested on: HT-29 (colon adenocarcinoma); assay: Cell proliferation assay (MTT); format: cell-based; settings: Homo sapiens, HT-29, 48 h, 2 days incubation, average ± SD of three experiments
Text: as §1, §2, §3

[3] = tested on: HMEC-1 (human microvascular endothelial cells); assay: Cell proliferation assay (MTT); format: cell-based; settings: HMEC-1, 48 h, 2 days incubation, average ± SD of three experiments
Text: as §1, §2, §3

[4] = tested on: HeLa (epithelioid cervix carcinoma); assay: Cell proliferation assay (MTT); format: cell-based; settings: Homo sapiens, 48 h, 2 days incubation, average ± SD of three experiments
Text: as §1, §2, §3

[5] = tested on: A549 (pulmonary adenocarcinoma); assay: Cell proliferation assay (MTT); format: cell-based; settings: Homo sapiens, A549, 48 h, 2 days incubation, average ± SD of three experiments
Text: as §1, §2, §3

HT-29 cells = assay: Cell proliferation evaluation in co-cultures: HT-29 with Jurkat T cells; format: cell-based, human; settings: 24 h
Method: We also studied the effect of Compounds 16, 23, 26 and 33 on tumor cell proliferation in the presence of PD-1 expressing Jurkat T-cells. For this assay, first interferon γ stimulated HT-29 cells were treated for 24 h with the selected compounds at 10 µM in presence of Jurkat T cells. Then, living cells were counted using trypan blue and a Neubauer chamber and by flow cytometry.
In 12-well plates, 10^5 HT-29 cells per well were seeded and incubated for 24 h with cell culture medium supplemented with IFN-γ (10 ng/mL; human, Invitrogen®) then medium was change by one containing 4 × 10^5 Jurkat T cells per well and 10 μM of the corresponding compound or DMSO for the control. After 24 h of incubation, supernatants were collected to determine Jurkat T cell living cells and, on the other hand, HT-29 cells were collected with trypsin. Both types of suspension cells were counted with the Neubauer chamber and trypan blue and also by flow cytometry.

c-Myc = c-Myc quantification by flow cytometry in A-549; format: cell-based, human; settings: A-549, 10 μM, 24 h, referred to control (DMSO)
Method: We evaluated the effect of the selected compounds on PD-L1 and on c-Myc proteins by flow cytometry after 24 h treatment at 10 μM concentration of compounds. Both, PD-L1 and c-Myc were relatively determined using DMSO treated cells as a negative control and BMS-8 as a positive one.
For the detection of total PD-L1 and c-Myc, cancer cells were seeded (3 × 10^5 cells/well) in 6-well plates and were incubated with the corresponding compounds for 24 h. Then they were collected, fixed, treated with 0.5% Triton^TM X-100 and stained with Alexa Fluor® 647 Rabbit monoclonal Anti-PD-L1 (ab215251) and FITC Rabbit monoclonal anti-c-Myc (ab223913).
We also checked results performing ELISA tests. For ELISA tests, lysates were collected, protein quantification was carried out by Bradford test and, then, PD-L1 and c-Myc were quantified using Human PD-L1 ELISA Kit 28-8 (ab214565) and c-Myc (Total) Human ELISA Kit (KHO2041), respectively, according to the manufacturer’s instructions.

HMEC-1 cells = assay: Tube formation inhibition assay; format: cell-based, human; settings: HMEC-1 on Matrigel, 20 h incubation; average of three experiments
Method: as §2
Wells of an IBIDI μ-slide angiogenesis (IBIDI, Martinsried, Germany) were coated with 12 μL of Matrigel® (10 mg/mL, BD Biosciences) at 4 °C. After gelatinization at 37 °C for 30 min, HMEC-1 cells were seeded at 2 × 10^4 cells/well in 35 μL of culture medium on top of the Matrigel and were incubated 30 min at 37 °C while are attached. Then, compounds were added dissolved in 35 μL of culture medium and after 20 h of incubation at 37 °C, tube destruction was evaluated.

VEGFR-2 = VEGFR-2 (Homo sapiens, UniProt P35968); assay: VEGFR-2 quantification by flow cytometry in HT-29; format: cell-based; parameters: Both membrane and total VEGFR-2 were relatively determined using dimethyl sulfoxide (DMSO) treated cells as a negative control; endogenous in cells; host or cells: HT-29 (colon adenocarcinoma) and HMEC-1 (human microvascular endothelial cells); settings: 24 h
Method: We performed the study on both a HT-29 cancer cell line and a human microvessel endothelial cell line (HMEC-1). […] The effect of these selected derivatives on VEGFR-2, on HT-29 tumor cell line and on human microvessel endothelial cells (HMEC) was determined by flow cytometry technique. […] For these assays, cells were incubated for 24 h in the presence of the corresponding compounds at 10 µM concentration.

[6] = HT-29, 10 µM, relative to DMSO control

Chain of VEGFR-2 (P35968 20-1356): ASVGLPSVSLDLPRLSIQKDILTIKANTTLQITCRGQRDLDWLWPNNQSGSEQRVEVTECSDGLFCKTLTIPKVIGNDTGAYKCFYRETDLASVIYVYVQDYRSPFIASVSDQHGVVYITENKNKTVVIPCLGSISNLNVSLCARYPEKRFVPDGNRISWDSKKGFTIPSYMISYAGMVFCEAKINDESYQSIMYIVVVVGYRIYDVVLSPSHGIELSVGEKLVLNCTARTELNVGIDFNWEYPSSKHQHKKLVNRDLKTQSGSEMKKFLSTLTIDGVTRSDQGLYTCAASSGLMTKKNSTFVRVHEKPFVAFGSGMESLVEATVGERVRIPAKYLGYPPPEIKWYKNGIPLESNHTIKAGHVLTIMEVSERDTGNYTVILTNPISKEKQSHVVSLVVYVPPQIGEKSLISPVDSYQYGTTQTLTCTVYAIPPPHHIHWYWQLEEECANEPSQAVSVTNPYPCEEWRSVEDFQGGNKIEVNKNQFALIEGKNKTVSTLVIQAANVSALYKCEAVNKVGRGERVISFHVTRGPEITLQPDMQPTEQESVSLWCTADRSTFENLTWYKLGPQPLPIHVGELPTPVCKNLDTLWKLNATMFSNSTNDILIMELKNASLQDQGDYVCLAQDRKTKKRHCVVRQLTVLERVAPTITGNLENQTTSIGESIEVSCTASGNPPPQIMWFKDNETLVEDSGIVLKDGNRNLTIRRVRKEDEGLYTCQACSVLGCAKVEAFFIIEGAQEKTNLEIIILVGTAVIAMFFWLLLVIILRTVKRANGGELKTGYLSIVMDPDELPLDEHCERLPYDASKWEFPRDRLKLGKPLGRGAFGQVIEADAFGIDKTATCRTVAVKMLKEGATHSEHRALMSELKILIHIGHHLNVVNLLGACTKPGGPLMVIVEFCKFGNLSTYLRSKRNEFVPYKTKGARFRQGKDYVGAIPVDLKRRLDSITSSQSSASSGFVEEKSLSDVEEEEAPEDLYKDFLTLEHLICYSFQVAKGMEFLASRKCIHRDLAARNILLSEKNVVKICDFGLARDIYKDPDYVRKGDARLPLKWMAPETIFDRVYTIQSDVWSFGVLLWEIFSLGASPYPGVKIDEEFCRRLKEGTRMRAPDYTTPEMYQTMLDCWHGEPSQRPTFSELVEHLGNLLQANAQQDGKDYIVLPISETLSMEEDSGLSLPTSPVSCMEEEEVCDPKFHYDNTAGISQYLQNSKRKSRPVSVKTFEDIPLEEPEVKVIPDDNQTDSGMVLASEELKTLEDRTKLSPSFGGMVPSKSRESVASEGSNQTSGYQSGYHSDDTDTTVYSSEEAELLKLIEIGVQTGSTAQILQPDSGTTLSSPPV

melting point: 173 °C
IC50 [2]: 17 ± 1 µM
IC50 [4]: 12 ± 4 µM
IC50 [5]: 12 ± 2 µM
inhibition at 10 µM (VEGFR-2; 10 µM, statement for HT-29 and HMEC-1, read-out: inhibition of both membrane and total VEGFR-2): > 50%
Membrane VEGFR-2 (%) (VEGFR-2; [6]): 39 ± 9%
Total VEGFR-2 (%) (VEGFR-2; [6]): 55 ± 10%
SMILES: COc1ccc(/C=C\c2cccc(NC(=O)Nc3ccc(Br)cc3)c2)cc1 [Compound 16]
IC50 [1]: 10 ± 2 µM
IC50 [3]: 27 ± 8 µM
inhibition at 10 µM (HT-29 cells; Homo sapiens, HT-29, co-cultured with Jurkat T-cells): ~90%
Living HT-29 cell proliferation (%) (HT-29 cells; IFN-γ stimulated HT-29 co-cultured with Jurkat T cells, 10 µM, five experiments): 9%
c-Myc (%) relative expression (c-Myc): 29 ± 5%
Minimum Active Conc. (inhibition of tube formation) (HMEC-1 cells): 10 µM
